Results reported in patent US20070213291A1, “Therapeutically useful synthetic oligonucleotides” (priority 1999, published 2007).

Experiments:
Format in all cases: cell-based
[1] = tested on: Jurkat human leukemia T cells; test: Inhibition of Jurkat human leukemia T cell proliferation (MTT reduction); conditions: for % INHIBITION of Jurkat human leukemia T cell proliferation: 100 μg/ml sequence, 48 h, 2.5×10^5 cells/ml
Experimental: Cells were seeded in 6 (1 ml/well), 24 (0.5 ml/well) or 96 (0.1 ml/well) well flat-bottom microplates and were maintained at 37° C. in a 5% CO2 atmosphere. Unless stated otherwise, 2.5×10^5 cells/ml were incubated with 0 μg/ml (control) and 100 μg/ml (treated) of 2 to 45 base sequences containing A, C, G and T for 48 h.
MTT was measured at a wavelength of 570 nm using a multiplate spectrophotometer reader (ELX800, Bio-TEK Instruments Inc., Winooski, Vt.).
Jurkat human leukemia T cells are an atypical multi-drug resistant human suspension tumor cell model.

[2] = tested on: THP-1 human acute monocytic leukemia cells; test: Cytokine production by THP-1 cells (ELISA); conditions: THP-1, 1×10^6 cells, 100 μg/ml, 48 h; for ↑ IL-12 (fold increase treated vs control cells): p70 complex and free p40
Experimental: (§1) Unless stated otherwise, 1×10^6 cells were incubated with 100 μg/ml of each of the sequences tested for 48 h at 37° C. in 5% CO2. Production of cytokines IL-6, IL-10, IL-12, IL-1beta and TNF-alpha was determined in pg/ml in 100 μl of culture supernatant using the appropriate commercial ELISA (BioSource, Camarillo Calif.). The IL-12 ELISA measures both IL-12 p70 complex and free p40 subunit. Results are expressed as the “fold” (×) increase in cytokine production by treated cells compared to control cells.
THP-1 human acute monocytic leukemia cells were incubated with 2, 3, 6, 9, 12, 14, 15 and 18 base GT sequences and production of the cyotkine IL-6 was determined (Table 35).
THP-1 human acute monocytic leukemia cells were incubated with 6 base GT, AG, CG, GG, AGT and CGT sequences and production of the cytokines IL-12 and IL-6 was determined (Table 36).
THP-1 human acute monocytic leukemia cells were incubated with 6 base GT sequences, having either an oxygen (phosphodiester) or a sulfur (phosphorothioate) as the nonbridging atom on the phosphate groups and production of the cytokine IL-12 was determined (Table 39).
THP-1 human acute monocytic leukemia cells were incubated with 6 base GT SEQ ID NO:25, having either an oxygen (phosphodiester) or a sulfur (phosphorothioate) as the nonbridging atom on the phosphate groups and production of the cytokine IL-12 was determined (Table 40).

[3] = tested on: Jurkat human leukemia T cells; test: Cell cycle stage in Jurkat cells (propidium iodide flow cytometry); conditions: Jurkat, 24 h, 100 μg/ml
Experimental: Cell cycle stage was determined using a […]™ PLUS DNA commercial kit (Becton Dickinson). Briefly, nuclei from cells were obtained by dissolving the cell membrane in a nonionic detergent, eliminating the cell cytoskeleton and nuclear proteins with trypsin, digesting the cellular RNA with RNase and stabilizing the nuclear chromatin with spermine. Propidium iodide was added to the cell nuclei and their fluorescence was analyzed in a flow cytometer equipped with electronic doublet discrimination capability (FACSCalibur, Becton Dickinson, San Jose, Calif.). Accumulation of cells in G0/G1, early S (SE), mid S (SM), late S (SL) or G2/M phases of the cell cycle was analyzed using MODFIT LT software (Verity Software House Inc., Topsham, Mass.).
Exponentially growing Jurkat human leukemia T cells (Table 28) and MCF-7 human breast cancer cells (5×10^5 cells/ml) (Table 29) were incubated for 24 h with 2, 6, 15, 18, 27 and 45 base sequences containing A, C, G and T. The cells were collected and centrifuged and cell cycle stage was determined.
Jurkat human cell leukemia T cells (1×10^6 cells/ml) were incubated for 24 h with 6 base GT SEQ ID NO:25, conplementary 6 base AC SEQ ID NO:79 and 6 base GT SEQ ID NO:25+6 base AC SEQ ID NO:79. GT SEQ ID NO:25 and AC SEQ ID NO:79 were hybridized by mixing the oligonucleotides (1:1) and heating for 10 minutes at 65° C. As controls, GT SEQ ID NO:25 and AC SEQ ID NO:79 were heated for 10 minutes at 65° C. (Table 30).

[4] = tested on: human peripheral blood mononuclear cells; test: Cytokine production by human PBMC (ELISA); conditions: PBMC of 7 healthy humans, 100 μg/ml, 48 h
Experimental: as §1
Peripheral blood mononuclear cells (hereinafter, “PBMCs”) were isolated from 7 healthy humans by Ficoll-Hypaque (Amersham Pharmacia Biotech, Baie d'Urfée, Québec, Canada) by density gradient centrifugation of whole blood. PBMCs were incubated with 6 base GT, AGT, CGT, AG, CG and GG sequences and production of the cytokines IL-1beta, IL-6, IL-10 and IL-12 were determined.

Row | Molecule | % INHIBITION of Jurkat human leukemia T cell proliferation [1] [%] | ↑ IL-6 (fold increase treated vs control cells) [2] [x] | ↑ IL-12 (fold increase treated vs control cells) [2] [x] | further results
1 | TGTT (unmodified DNA) [SEQ ID NO:57] | 32 | – | – | –
2 | GGGTGGT (unmodified DNA) [SEQ ID NO:65] | 48 | – | – | –
3 | CGGTGC [SEQ ID NO:38] | 16 | 6.9 | 0.2 | –
4 | AAAGAGGGGCATGACCCGGTGCGGGGGTTCTTGCACTCGGCATAG (unmodified DNA) [BCG A-1, reference compound] | 6 | 2.6 | 1.9 | % of cells in phase: G0/G1 [3]: 19.8%; % of cells in phase: G2/M [3]: 12.0%; % of cells in phase: SE [3]: 31.7%; % of cells in phase: SL [3]: 14.0%; % of cells in phase: SM [3]: 22.5%; Arrest (cell cycle) [3]: Mid SM
5 | TTGTGG [SEQ ID NO:39] | 35 | 6.6 | 0.0 | % INHIBITION of Jurkat proliferation at suboptimal concentration ([1]; 5.0 μg/ml of each 6 base sequence, alone or two together): 4%
6 | TGTG (unmodified DNA) [SEQ ID NO:59] | 52 | – | – | –
7 | TGTGTGTGTGTGTGTGTGTGTGTG [SEQ ID NO:21] | 54 | – | – | –
8 | GTGTGTGTGTGTGTGTGTGTGTGT [SEQ ID NO:22] | 56 | – | – | –
9 | TGTGTGTGTGTGTGTGTGTGT (unmodified DNA) [SEQ ID NO:19] | 60 | – | – | –
10 | TGTGTGTGTGTGTGTGTGTGTGTGTG (DNA TGTGTGTGTGTGTGTGTGTGTGTGTGT; unmodified DNA) [SEQ ID NO:5] | 45 | – | – | –
11 | TGGGTGG (unmodified DNA) [SEQ ID NO:64] | 55 | – | – | –
12 | CGACTACAACGGCTGGGATATCAACACCCCGGCGTTCGAGTGGTA (unmodified DNA) [BCG ALPHA-1, reference compound] | 10 | 2.1 | 1.1 | –
13 | CCGTGG [SEQ ID NO:34] | 37 | 10.8 | 0.0 | –
14 | GTGGGG [SEQ ID NO:48] | 26 | – | – | –
15 | ACGAGACCACCATCGTCGAGGGCGCCGGTGACACCGACGCCATCG (unmodified DNA) [BCG A-6, reference compound] | 21 | 3.9 | 2.1 | –
16 | AGGTGA [SEQ ID NO:31] | 10 | 4.9 | 1.9 | % of cells in phase: G0/G1 [3]: 35.2%; % of cells in phase: G2/M [3]: 17.1%; % of cells in phase: SE [3]: 29.1%; % of cells in phase: SL [3]: 8.2%; % of cells in phase: SM [3]: 10.4%; Arrest (cell cycle) [3]: Mid SE
17 | GGAGGG (unmodified DNA) [SEQ ID NO:47] | 14 | – | – | –
18 | TTGG (unmodified DNA) [SEQ ID NO:55] | 44 | – | – | –
19 | N.N.[Cl][Pt][Cl] [Cisplatin, reference compound] | – | – | – | % INHIBITION of Jurkat proliferation, Cisplatin 0.1 μg/ml ([1]; cisplatin 0.1 μg/ml, alone or with sequence at 1.0 μg/ml): 7%; % INHIBITION of Jurkat proliferation, Cisplatin 1.0 μg/ml ([1]; cisplatin 1.0 μg/ml, alone or with sequence at 1.0 μg/ml): 29%; % INHIBITION of Jurkat proliferation, Cisplatin 10.0 μg/ml ([1]; cisplatin 10.0 μg/ml, alone or with sequence at 1.0 μg/ml): 73%

Row | Molecule | % INHIBITION of Jurkat human leukemia T cell proliferation [1] [%] | ↑ IL-6 (fold increase treated vs control cells) [2] [x] | ↑ IL-12 (fold increase treated vs control cells) [2] [x] | further results
20 | GTGTGTGTGTGTGTGTGTGTGTGTGTG (DNA, backbone not given here; further chemistry not fully specified) [SEQ ID NO:1 phosphorothioate] | – | – | – | % of cells in phase: G0/G1 [3]: 33.7%; % of cells in phase: G2/M [3]: 24.5%; % of cells in phase: SE [3]: 17.6%; % of cells in phase: SL [3]: 11.0%; % of cells in phase: SM [3]: 13.2%; Arrest (cell cycle) [3]: None
21 | GTGTGTGTG (chemistry not given here) [SEQ ID NO:12] | 47 | 5.4 | – | –
22 | GTGTGTGTGTGTGTG (unmodified DNA) [SEQ ID NO:16] | 58 | 2.6 | – | –
23 | GGGTCT [SEQ ID NO:33] | 15 | 3.1 | 1.2 | –
24 | GGTT (unmodified DNA) [SEQ ID NO:58] | 37 | – | – | –
25 | TGTGTGTGTGTGTG (chemistry not given here) [SEQ ID NO:15] | 47 | 1.0 | – | proliferation, cell cycle arrest and apoptosis of Jurkat T cells (summary in words) ([1]; M. phlei murA derived sequences): did not inhibit proliferation of, induce cell cycle arrest in or induce apoptosis of Jurkat T cells
26 | ACGCCGACGTCGTCTGTGGTGGGGTGTCTACCGCCAACGCGACGG (unmodified DNA) [BCG M-3, reference compound] | 22 | 2.5 | 1.6 | –
27 | GGGTTT [SEQ ID NO:40] | 31 | 14.0 | −1.2 | –
28 | GGGTCC [SEQ ID NO:35] | 20 | 21.3 | 1.9 | –
29 | GGGTGGG (unmodified DNA) [SEQ ID NO:63] | 28 | – | – | –
30 | TGTGTGTGTGTG [SEQ ID NO:13] | 49 | 5.7 | – | IL-1 beta fold increase: mean +/− SD [4]: 2.4 +/− 1.9 fold increase; IL-6 fold increase: mean +/− SD [4]: 12.1 +/− 6.5 fold increase; IL-10 fold increase: mean +/− SD [4]: 1.2 +/− 0.4 fold increase; IL-12 fold increase: mean +/− SD [4]: 4.4 +/− 5.3 fold increase
31 | GTGTGTGTGTGTGTGTGTGTG (unmodified DNA) [SEQ ID NO:20] | 46 | – | – | –
32 | TGTGTGTGT (unmodified DNA) [SEQ ID NO:11] | 45 | 5.4 | – | –
33 | TTGT (unmodified DNA) [SEQ ID NO:53] | 25 | – | – | –
34 | GTGT (unmodified DNA) [SEQ ID NO:54] | 42 | – | – | –
35 | TCTCTCTCTCTCTCTCTCTCTCTCTCT (unmodified DNA) [SEQ ID NO:6] | 0 | – | – | –
36 | GCCGAGAAGGTGCGCAACCTGCCGGCTGGCCACGGACTGAACGCT (unmodified DNA) [BCG A-7, reference compound] | 4 | – | 0.5 | –
37 | GAGTGA [SEQ ID NO:32] | 24 | 5.8 | 1.8 | –
